Patent publication US20240300976A1, “COMPOUNDS AS MODULATORS OF ENDOPLASMIC RETICULUM AMINOPEPTIDASE 1 (ERAP1)” (GREY WOLF THERAPEUTICS LIMITED, priority 2020, published 2024)
pIC50: −log10 of the molar value. Like-named read-outs stand apart in the source and are kept apart here.

Legend:
[1] = DCM
ERAP1 = target: T1, ERAP1 (Homo sapiens, UniProt Q9NZ08); test: ERAP1 mediated hydrolysis of an amide substrate (10-mer inhibition assay), biochemical system; settings: 10-mer substrate, incubated at 23° C. for 1 h, excitation 279 nm and emission 355 nm; read-out: IC50 vs Decapeptide WRVYEKC(Dnp)ALK-acid (where Dnp is Dinitrophenyl maleimide) (10-mer)
T1 construct: Purified ERAP1(37-941)-10His (ERAP1); 10His (C)
T1 sequence (Q9NZ08 37-941): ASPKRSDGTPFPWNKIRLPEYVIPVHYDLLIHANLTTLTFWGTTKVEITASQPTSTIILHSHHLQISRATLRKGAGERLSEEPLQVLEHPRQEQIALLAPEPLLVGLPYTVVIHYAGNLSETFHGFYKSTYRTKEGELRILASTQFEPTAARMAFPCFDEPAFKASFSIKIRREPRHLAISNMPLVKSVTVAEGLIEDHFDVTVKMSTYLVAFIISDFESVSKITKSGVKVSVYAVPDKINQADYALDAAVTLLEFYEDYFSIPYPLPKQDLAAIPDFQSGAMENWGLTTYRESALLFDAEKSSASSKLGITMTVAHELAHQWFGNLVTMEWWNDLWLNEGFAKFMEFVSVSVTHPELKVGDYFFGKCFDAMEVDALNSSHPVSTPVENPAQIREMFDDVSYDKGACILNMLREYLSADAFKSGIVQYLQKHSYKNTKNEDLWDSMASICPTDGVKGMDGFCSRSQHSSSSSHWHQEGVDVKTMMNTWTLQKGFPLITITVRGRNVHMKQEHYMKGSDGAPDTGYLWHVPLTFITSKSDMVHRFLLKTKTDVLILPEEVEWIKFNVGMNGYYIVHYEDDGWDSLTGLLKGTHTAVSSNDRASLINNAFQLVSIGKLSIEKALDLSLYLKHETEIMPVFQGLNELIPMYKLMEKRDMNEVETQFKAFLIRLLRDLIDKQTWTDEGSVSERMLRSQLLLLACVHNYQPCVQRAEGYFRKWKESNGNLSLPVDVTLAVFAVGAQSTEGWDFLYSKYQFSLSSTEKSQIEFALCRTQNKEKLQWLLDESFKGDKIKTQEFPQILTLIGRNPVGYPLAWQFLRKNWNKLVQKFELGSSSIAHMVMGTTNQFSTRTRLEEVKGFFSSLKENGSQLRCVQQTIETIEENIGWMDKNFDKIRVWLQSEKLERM
In short: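 Purified ERAP1(37-941)-10His in 25 mM Bis-tris propane, 0.05% HPMC, pH 7.75 was mixed with compound, then 240 μM L-AMC or 100 μM 10-mer WRVYEKC(Dnp)ALK (concentrations before mixing) was added, 1 h at 23 °C. 10-mer cleavage read as tryptophan fluorescence (ex 279/em 355 nm); L-AMC at ex 365/em 442 nm. IC50 from 4-parameter fit.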

pIC50 (ERAP1)	Molecule	further results
–	COC(=O)c1ccc2c(c1)S(=O)(=O)Nc1cc(C#N)c(Cl)cc1N1CCCCC1C=CCO2 (stereo not drawn)	ring closure, isolated yield ([1]; from C=CCOc1ccc(C(=O)OC)cc1S(=O)(=O)Nc1cc(C#N)c(Cl)cc1N1CCCCC1C=C, rcm bond, 12-membered ring, Hoveyda-Grubbs II (2 x 5 mol%), 56.3 mM, 88.0 h): 25%
–	COC(=O)c1ccc2c(c1)S(=O)(=O)Nc1cc(C#N)c(Cl)cc1N1CCCC[C@@H]1CCCO2	ring closure, isolated yield ([1]; from COC(=O)c1ccc(O)c(S(=O)(=O)Nc2cc(C#N)c(Cl)cc2N2CCCC[C@@H]2CCCO)c1, ether bond, 12-membered ring, PPh3/DIAD, 43.7 mM, 1.0 h): 22%
–	COC(=O)c1ccc2c(c1)S(=O)(=O)Nc1cc(C#N)c(Cl)cc1N1CCCC[C@H]1CC=CCO2	ring closure, isolated yield ([1]; from C=CCOc1ccc(C(=O)OC)cc1S(=O)(=O)Nc1cc(C#N)c(Cl)cc1N1CCCC[C@H]1CC=C, rcm bond, 13-membered ring, Hoveyda-Grubbs II, 20.1 mM, 16.0 h): 81%
–	COC(=O)c1ccc2c(c1)S(=O)(=O)Nc1cc(C#N)c(Cl)cc1N1CCCC[C@H]1CCCO2	ring closure, isolated yield ([1]; from COC(=O)c1ccc(O)c(S(=O)(=O)Nc2cc(C#N)c(Cl)cc2N2CCCC[C@H]2CCCO)c1, ether bond, 12-membered ring, PPh3/DIAD, 47.1 mM, 1.0 h): 23%
–	COC(=O)c1ccc2c(c1)S(=O)(=O)Nc1cc(C#N)c(F)cc1N1CCCC[C@H]1CCCCO2	ring closure, isolated yield ([1]; from COC(=O)c1ccc(O)c(S(=O)(=O)Nc2cc(C#N)c(F)cc2N2CCCC[C@H]2CCCCO)c1, ether bond, 13-membered ring, PPh3/DIAD, 31.7 mM, 1.0 h): 88%
> 6.60	N#Cc1cc2c(cc1Cl)N1CCCC[C@H]1C/C=C/COc1ccc(C(=O)O)cc1S(=O)(=O)N2 [Example 61, (S,E)-3-chloro-2-cyano-7,8,9,9a,10,13-hexahydro-6H, 20H-dibenzo[b,f]pyrido[1,2-h][1]oxa[4]thia[5,8]diazacyclotridecine-17-carboxylic acid 19,19-dioxide]	–
< 6.00	CS(=O)(=O)NC(=O)c1ccc2c(c1)S(=O)(=O)Nc1cc(C#N)c(F)cc1N1CCCC[C@H]1CCCCO2 [Example 63, (S)-2-cyano-3-fluoro-N-(methylsulfonyl)-7,8,9,9a,10,11,12,13-octahydro-6H, 20H-dibenzo[b,f]pyrido[1,2-h][1]oxa[4]thia[5,8]diazacyclotridecine-17-carboxamide 19,19-dioxide]	–
< 6.00	CS(=O)(=O)NC(=O)c1ccc2c(c1)S(=O)(=O)Nc1cc(C#N)c(Cl)cc1N1CCCC[C@H]1CCCO2 [Example 64, (S)-3-chloro-2-cyano-N-(methylsulfonyl)-6,7,8,9,9a,10,11,12-octahydro-19H-dibenzo[b,f]pyrido[1,2-h][1]oxa[4]thia[5,8]diazacyclododecine-16-carboxamide 18,18-dioxide]	–
> 6.60	N#Cc1cc2c(cc1Cl)N1CCCC[C@H]1COCCOc1ccc(C(=O)O)cc1S(=O)(=O)N2 [Example 69, (S)-3-chloro-2-cyano-6,7,8,9,9a,10,12,13-octahydro-20H-dibenzo[e,i]pyrido[1,2-k][1,4]dioxa[7]thia[8,11]diazacyclotridecine-17-carboxylic acid 19,19-dioxide]	–
> 6.60	N#Cc1cc2c(cc1Cl)N1CCCC[C@H]1CCCCCc1ccc(C(=O)O)cc1S(=O)(=O)N2 [Example 72, (R)-3-chloro-2-cyano-6,7,8,9,9a,10,11,12,13,14-decahydro-20H-dibenzo[c,l]pyrido[1,2-e][1]thia[2,5]diazacyclotridecine-17-carboxylic acid 19,19-dioxide]	–
> 6.60	N#Cc1cc2c(cc1Cl)N1CCCC[C@H]1COCCCc1ccc(C(=O)O)cc1S(=O)(=O)N2 [Example 73, (S)-3-chloro-2-cyano-6,7,8,9,9a,10,13,14-octahydro-12H, 20H-dibenzo[e,i]pyrido[2,1-c][1]oxa[8]thia[4,7]diazacyclotridecine-17-carboxylic acid 19,19-dioxide]	–
–	(E)-20-tert-butyl 17-methyl 2-(trifluoromethyl)-6,7,8,9,9a,10-hexahydrodibenzo[b,f]pyrido[1,2-h][1,4,5,8]oxathiadiazacyclotridecine-17,20(13H)-dicarboxylate 19,19-dioxide	ring closure, isolated yield ([1]; rcm bond, 13-membered ring, Hoveyda-Grubbs II (two portions), 42.3 mM, 35.0 °C): 33%
–	methyl (E)-2-cyano-7,8,9,9a,10,13-hexahydro-6H, 20H-dibenzo[b,f]pyrido[1,2-h][1]oxa[4]thia[5,8]diazacyclotridecine-17-carboxylate 19,19-dioxide	ring closure, isolated yield ([1]; rcm bond, 13-membered ring, Hoveyda-Grubbs II (5 mol%), 50.2 mM): 66%

Molecule	pIC50 (ERAP1)	further results
N#Cc1cc2c(cc1Cl)N1CCCC[C@H]1COC/C=C/c1ccc(C(=O)O)cc1S(=O)(=O)N2 [Example 70, (S,E)-3-chloro-2-cyano-6,7,8,9,9a,10-hexahydro-12H, 20H-dibenzo[e,i]pyrido[2,1-c][1]oxa[8]thia[4,7]diazacyclotridecine-17-carboxylic acid 19,19-dioxide]	> 6.60	–
N#Cc1cc2c(cc1Cl)N1CCCC[C@H]1CCC/C=C/c1ccc(C(=O)O)cc1S(=O)(=O)N2 [Example 71, (R,E)-3-chloro-2-cyano-6,7,8,9,9a,10,11,12-octahydro-20H-dibenzo[c,l]pyrido[1,2-e][1]thia[2,5]diazacyclotridecine-17-carboxylic acid 19,19-dioxide]	6.00 to 6.60	–
